# How the values were obtained:
# [1] = tested on: monocytic THP1 cells infected with HIV VSV-G pseudotyped GFP-NEF reporter virus; test: cells; format: cell-based; conditions: Human immunodeficiency virus 1, THP-1, 24 h
# [2] = tested on: CD4 cells, isolated from healthy donor PMBCs, infected with HIV VSV-G pseudotyped GFP-GAG reporter virus; test: tissue or blood; format: cell-based; conditions: Homo sapiens, 72 h
Structure (SMILES),EC50 [1],EC50 [2]
"Cc1cc(/C=C/C#N)cc(C)c1Oc1nc(NC23CC(C#N)(C2)C3)nc2c1CCN2 [Compound 130, 3-[[4-[4-[(E)-2-cyanovinyl]-2,6-dimethyl-phenoxy]-6,7-dihydro-5H-pyrrolo[2,3-d]pyrimidin-2-yl]amino]bicyclo[11.1.1]pentane-1-carbonitrile]",221 nM,56 nM
Cc1cc(/C=C/C#N)cc(C)c1Oc1nc(NC23CC(C#N)(C2)C3)nc2cnn(C)c12 [Compound 122],54 nM,47.3 nM
"Cc1cc(/C=C/C#N)cc(C)c1Oc1nc(NC23CC(C#N)(C2)C3)nc2ncn(CC(F)(F)F)c12 [Compound 106, (E)-3-((6-(4-(2-cyanovinyl)-2,6-dimethylphenoxy)-7-(2,2,2-trifluoroethyl)-7H-purin-2-yl)amino)bicyclo[1.1.1]pentane-1-carbonitrile]",216 nM,237 nM
"Cc1cc(/C=C/C#N)cc(C)c1Oc1nc(NC23CC(C#N)(C2)C3)nc2nc(C)n(C)c12 [Compound 97, (E)-3-((6-(4-(2-cyanovinyl)-2,6-dimethylphenoxy)-7,8-dimethyl-7H-purin-2-yl)amino)bicyclo[1.1.1]pentane-1-carbonitrile]",32.5 nM,51.1 nM
"Cc1cc(/C=C/C#N)cc(C)c1Oc1nc(NC23CC(C#N)(C2)C3)nc2nc(C3CC3)[nH]c12 [Compound 49, (E)-3-((6-(4-(2-cyanovinyl)-2,6-dimethylphenoxy)-8-cyclopropyl-7H-purin-2-yl)amino)bicyclo[1.1.1]pentane-1-carbonitrile]",110 nM,166 nM
"Cc1cc(/C=C/C#N)cc(C)c1Oc1nc(NC23CC(C#N)(C2)C3)nc2[nH]nc(C#N)c12 [Compound 112, (E)-6-((3-cyanobicyclo[1.1.1]pentan-1-yl)amino)-4-(4-(2-cyanovinyl)-2,6-dimethylphenoxy)-1H-pyrazolo[3,4-d]pyrimidine-3-carbonitrile]",745 nM,294 nM
"Cc1cc(/C=C/C#N)cc(C)c1Oc1nc(NC23CC(C#N)(C2)C3)nc2[nH]nnc12 [Compound 80, €-3-((7-(4-(2-cyanovinyl)-2,6-dimethylphenoxy)-3H-[1,2,3]triazolo[4,5-d]pyrimidin-5-yl)amino)bicyclo[1.1.1]pentane-1-carbonitrile]",593 nM,551 nM
"Cc1cc(/C=C/C#N)cc(C)c1Oc1nc(NC23CC(C#N)(C2)C3)nc2[nH]nc(C)c12 [Compound 119, 3-[[4-[4-[(E)-2-cyanovinyl]-2,6-dimethyl-phenoxy]-3-methyl-1H-pyrazolo[3,4-d]pyrimidin-6-yl]amino]bicyclo[11.1.1]pentane-1-carbonitrile]",19.3 nM,16.9 nM

# — patent publication US20250333424A1, “ANTIVIRAL COMPOUNDS” (Gilead Sciences, Inc., priority 2024, published 2025)
